# Experimental data taken from ChEMBL document CHEMBL1146518, “Phenolic metabolites of Dalea versicolor that enhance antibiotic activity against model pathogenic bacteria” (2004).
# Activity calls are given as the source filed them. The calls are words filed in the database; no cut-off is given here.
# What was measured:
# Staphylococcus aureus = assay: Antimicrobial activity against Staphylococcus aureus after 18 hrs by serial twofold dilution test; assay type: functional
# [1] = target: T1, Quinolone resistance protein NorA (Staphylococcus aureus) (UniProt P0A0J7); assay: Inhibition of NorA MDR efflux pump in Staphylococcus aureus assessed as increase in antimicrobial activity of berberine at 10 ug/ml after 18 hrs by twofold serial dilution method
# T1 sequence (whole entry): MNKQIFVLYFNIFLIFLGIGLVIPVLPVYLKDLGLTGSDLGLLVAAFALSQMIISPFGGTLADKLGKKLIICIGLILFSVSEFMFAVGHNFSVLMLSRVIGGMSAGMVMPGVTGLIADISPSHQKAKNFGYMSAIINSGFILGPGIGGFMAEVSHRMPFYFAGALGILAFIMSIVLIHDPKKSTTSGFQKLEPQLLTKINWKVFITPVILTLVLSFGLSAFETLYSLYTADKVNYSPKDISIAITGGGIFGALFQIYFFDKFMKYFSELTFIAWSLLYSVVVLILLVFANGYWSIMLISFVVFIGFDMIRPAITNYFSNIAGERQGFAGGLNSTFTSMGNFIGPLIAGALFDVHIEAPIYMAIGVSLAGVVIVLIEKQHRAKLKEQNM
# [2] = target: T1, Quinolone resistance protein NorA (Staphylococcus aureus); assay: Inhibition of NorA MDR efflux pump in Staphylococcus aureus assessed as increase in antimicrobial activity of erythromycin at 10 ug/ml after 18 hrs by twofold serial dilution method
# [3] = target: T1, Quinolone resistance protein NorA (Staphylococcus aureus); assay: Inhibition of NorA MDR efflux pump in Staphylococcus aureus assessed as increase in antimicrobial activity of tetracycline at 10 ug/ml after 18 hrs by twofold serial dilution method
# Bacillus cereus = assay: Inhibition of NorA MDR efflux pump in Bacillus cereus assessed as fold increase in antimicrobial activity of berberine at 10 ug/ml after 24 hrs by twofold serial dilution method
MIC (Staphylococcus aureus),Activity [1],Activity [2],Activity [3],fold change (FC) (Bacillus cereus),Compound
31.3 µg/mL,–,–,–,–,C=CC(C)(C)c1cc(C2COc3c(CC=C(C)C)c(O)cc(O)c3C2=O)c(O)cc1O (stereo not drawn) [DALVERSINOL A]
7.8 µg/mL,–,–,–,–,C=CC(C)(C)c1cc([C@@H]2CC(=O)c3c(O)cc(O)c(CC=C(C)C)c3O2)c(O)cc1O
250 µg/mL,Active,Active,Active,30,COc1c(C)c(O)c(C)c(O)c1C(=O)/C=C/c1ccccc1

Compound,MIC (Staphylococcus aureus),Activity [1],Activity [2],Activity [3],fold change (FC) (Bacillus cereus)
COc1ccc(/C=C/c2cc(OC)cc(OC)c2)cc1 [TRISMETHOXYRESVERATROL],500 µg/mL,–,–,–,–
